Here are results for one molecule from patent publication US20250320215A1, “SALTS OF N-[4-(4-[[2-(DIMETHYLAMINO)ETHYL]AMINO]-3-METHYL-1H-PYRAZOLO[3,4-D]PYRIMIDIN-6-YL)-2-FLUOROPHENYL]-2,5-DIFLUOROBENZENESULFONAMIDE AND CRYSTALLINE FORMS THEREOF” (THRYV THERAPEUTICS INC, priority 2022, published 2025).

The structures appear in SMILES notation.

The data set is described as follows: Slurry study evaluated by XRPD. The data set is classed as physicochemical. The note with it: slurry started from Form B; Form C occurred at 30 min; at 60 min.

Consider `Cc1n[nH]c2nc(-c3ccc(NS(=O)(=O)c4cc(F)ccc4F)c(F)c3)nc(NCCN(C)C)c12` [Compound 4 Form C], for which the “form conversion during slurry in THF” value is reported as “converted to di-mesylate Form D completely”.
